What is called IC50 is the concentration needed to halve the response being measured.

Four molecules from PMC7278695, “Dual SMO/BRAF Inhibition by Flavonolignans from Silybum marianum” (Antioxidants, 2020) can be followed below.

One assay deals with T1, BRAF V600E kinase (Homo sapiens, UniProt P15056, V600E).
T1 construct: purchased BPS Bioscience #48688
The assay is described as follows: BRAF (V600E) Kinase Assay Kit, Kinase-Glo luminescence. It is filed as biochemical. The note with it: 45 min at 30 °C. The protocol:
The activities of silybins and dehydrosilybins were tested using a commercial BRAF (V600E) (serine/threonine-protein kinase B-raf, V600E mutant) Kinase Assay Kit (#48688, BPS Bioscience, San Diego, CA, USA). Briefly, the BRAF (V600E) enzyme was incubated for 45 min at 30 °C with five different concentrations of each tested compound in logarithmic dilutions (1000, 100, 10, 1, and 0.1 µM). The reaction mixture was prepared following the instructions of the producer. The luminescence of the product of the enzyme activity was measured with the Kinase-Glo MAX Kit (#V6071, Promega, Madison, WI, USA) at a microplate luminometer (Synergy Multi-Mode Reader, BioTek, Winooski, VT, USA). Higher luminescent signal corresponded to […] enzyme activity. […] The reaction mixture without the test inhibitor represented the positive control, whereas the mixture without the test inhibitor and without the enzyme was used as blank.
The experiments for evaluation of the BRAF inhibition and cytotoxicity were performed in triplicate. The IC50 values were calculated by the BfROpenLab’s non-linear regression nodes in the KNIME analytics platform with the constant slope model.
On the technique in general: Kinase-Glo measures the ATP left after a reaction by luminescence.

The subject of assay [1] is HaCaT non-tumorigenic human keratinocytes. The assay is described as follows: MTT cytotoxicity assay, HaCaT. It counts as cell-based. The settings on record: 72 h, read-out: IC50 (95% Confidence Interval), HaCaT. The protocol:
(§1) The cytotoxic activity of the tested compounds was evaluated on non-tumorigenic human keratinocytes (HaCaT, #300493), skin melanoma malignant cells with BRAF V600E mutation (A-375, #300110), and skin epidermoid carcinoma cells (A-431, #300112), all purchased from CLS Cell Lines Service (Eppelheim, Germany). The cell lines were maintained in DMEM (#DMEM-HPA, Capricorn®, Ebsdorfergrund, Germany) supplemented with 10% fetal bovine serum (#FBS-HI-12A, Capricorn®, Ebsdorfergrund, Germany) and 4 mM L-glutamine (#G7513, Merck (Sigma-Aldrich), Germany) and incubated under standard conditions (5% CO2, 37 °C, 90%-95% humidity). The experiments were performed between passages 4 and 15 whereby the cells were sub-cultured every 4th day by splitting 1:8, according to the protocol of the biobank. Briefly, the cell cultures were rinsed with PBS without calcium and magnesium (PBS, #D8537, Merck (Sigma-Aldrich), Germany) and incubated for 8-10 min with accutase (#ACC-1B, Capricorn®, Ebsdorfergrund, Germany) as a detachment agent. After centrifugation, the cells were counted with trypan blue (0.4% solution, #T8154, Merck (Sigma-Aldrich), Germany). The antiproliferative effects of SilA, SilB, […], and DHSilB were tested using the MTT-dye (3-(4,5-dimethylthiazol-2-yl)-2,5-diphenyltetrazolium bromide) assay according to ISO 10993-5-2009, Annex C [26]. Briefly, the cells were seeded in 96-well plates at a density of 0.1 × 10^6/mL, incubated for 24 h at 37 °C (5% CO2), and treated with ten concentrations of the compounds ranging from 3.9 to 1000 μM in twofold serial dilutions. After 72 h, the MTT-dye (#M5655-1G, Merck (Sigma-Aldrich), Germany) was added to each sample at a final concentration of 0.05 mg/mL and the plates were incubated for 2 h at 37 °C (5% CO2). The supernatant was aspirated, and the formazan crystals formed as a product of the enzymatic MTT reduction were dissolved in 2-propranol (#33539, Merck (Sigma-Aldrich), Germany) supplemented with 5% formic acid (#300415, […]/Neuber, Sofia, Bulgaria). The absorbance of the product was measured at 550 nm (reference filter 690 nm) on an ELISA Reader BioTek ELx800 (BioTek). The experiments for evaluation of the BRAF inhibition and cytotoxicity were performed in triplicate. The IC50 values were calculated by the BfROpenLab's non-linear regression nodes in the KNIME analytics platform with the constant slope model.
In general terms: Tetrazolium dyes change colour on reduction, which living cells bring about.

Assay [2] deals with Hedgehog signaling pathway in NIH3T3 Shh-Light II cells. The assay is described as follows: HH-dependent (Gli-responsive) luciferase reporter assay. It is filed as cell-based. The settings on record: SAG 200 nM, 48 h; for HH inhibitory activity (in words): maximum concentration of 30 μM. The protocol: The luciferase assay was carried out in NIH3T3 Shh-Light II cells, stably incorporating a Gli-responsive luciferase reporter and the pRL-TK Renilla, treated with SAG (SMO Agonist, 200 nM, Alexis Biochemicals Farmingdale, NY, USA) and the selected compounds for 48 h. Luciferases activities from P. pyralisand and R. reniformis were assayed with a dual-luciferase assay system, according to the manufacturer’s instructions (Biotium Inc., Hayward, CA, USA). The results were expressed as a P. pyralisand/R. reniformis luciferase ratio and represent the mean ± S.D. of three experiments, each performed in triplicate.
With respect to the SMO receptor, the HH inhibitory activity of the compounds, alone and in a racemate, was investigated in a luciferase reporter assay, which is widely used for characterizing HH inhibitors. The HH inhibitory activity of synthesized molecules was evaluated in NIH3T3 Shh Light II cells, stably incorporating a Gli-responsive firefly luciferase treated with the synthetic SMO agonist SAG [32], alone and in combination with the tested compounds.
For orientation: In a reporter assay the amount or activity of a reporter protein is the signal.

Assay [3] concerns A-431 skin epidermoid carcinoma cells. The assay is described as follows: MTT cytotoxicity assay, A-431. It counts as cell-based. The settings on record: Homo sapiens, 72 h, read-out: IC50 (95% Confidence Interval), A-431. The protocol: as §1
Assay [4] concerns A-375 skin melanoma malignant cells with BRAF V600E mutation. Description: MTT cytotoxicity assay, A-375. It is filed as cell-based. The settings on record: Homo sapiens, 72 h, read-out: IC50 (95% Confidence Interval), A-375. On the procedure: as §1
For assay [5], the target named is T2, Human Myc-DDK-tagged SMO in HEK293T cells (Homo sapiens, UniProt Q99835).
T2 construct: Myc; DDK (FLAG); expressed in transfected cells; host or cells: HEK293T
The assay is described as follows: BODIPY-Cyclopamine binding (displacement) assay. The settings on record: BC 5 nM, 2 h at 37 °C. The protocol: Human Myc-DDK-tagged SMO or empty vector was transfected in HEK293T cells. Cells were washed in phosphate-buffered saline (PBS) supplemented with 0.5% fetal bovine serum, fixed in 4% paraformaldehyde in PBS for 10 min, and incubated for 2 h at 37 °C, both in the same medium supplemented with BODIPY-Cyclopamine (BioVision Inc., San Francisco, CA, USA) (BC, 5 nM) and the studied compounds. The cells were permeabilized with Triton X100 (Sigma-Aldrich, St. Louis, MO, USA) 0.2%, and Hoechst reagent was used for cell nuclei staining. Data were expressed as a percentage of BC incorporation observed with BC alone.
To further investigate the binding properties of the selected compounds to the SMO receptor, we performed a displacement assay based on the use of BODIPY-Cyclopamine, which is known to interact with the binding site of SMO antagonists located within the heptahelical bundle of the receptor. To this aim, HEK293T cells were transiently transfected for expression of SMO and then incubated with BC in the presence or absence of increased amounts of DHSilA or DHSilAB.

T1 sequence (P15056 whole entry V600E): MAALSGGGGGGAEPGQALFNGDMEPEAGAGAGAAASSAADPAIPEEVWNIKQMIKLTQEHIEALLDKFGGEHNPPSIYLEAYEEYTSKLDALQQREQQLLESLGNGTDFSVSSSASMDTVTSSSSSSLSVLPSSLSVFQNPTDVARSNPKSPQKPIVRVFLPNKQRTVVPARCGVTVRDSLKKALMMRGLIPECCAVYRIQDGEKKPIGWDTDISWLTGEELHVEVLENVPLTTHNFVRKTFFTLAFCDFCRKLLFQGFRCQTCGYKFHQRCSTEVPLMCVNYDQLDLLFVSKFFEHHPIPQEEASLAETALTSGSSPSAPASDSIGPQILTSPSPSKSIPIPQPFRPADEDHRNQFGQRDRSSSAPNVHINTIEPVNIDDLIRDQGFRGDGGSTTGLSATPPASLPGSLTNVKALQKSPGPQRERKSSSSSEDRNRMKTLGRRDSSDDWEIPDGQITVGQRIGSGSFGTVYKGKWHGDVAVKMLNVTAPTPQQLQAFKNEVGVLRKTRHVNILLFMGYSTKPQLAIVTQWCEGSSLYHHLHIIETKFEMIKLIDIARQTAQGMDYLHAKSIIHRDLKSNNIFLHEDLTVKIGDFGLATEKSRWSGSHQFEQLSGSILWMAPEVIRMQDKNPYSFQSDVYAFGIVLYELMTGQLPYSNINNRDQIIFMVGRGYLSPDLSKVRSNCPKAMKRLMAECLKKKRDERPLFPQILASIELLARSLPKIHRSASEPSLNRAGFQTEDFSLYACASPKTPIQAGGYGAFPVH
T2 sequence (Q99835 28-787): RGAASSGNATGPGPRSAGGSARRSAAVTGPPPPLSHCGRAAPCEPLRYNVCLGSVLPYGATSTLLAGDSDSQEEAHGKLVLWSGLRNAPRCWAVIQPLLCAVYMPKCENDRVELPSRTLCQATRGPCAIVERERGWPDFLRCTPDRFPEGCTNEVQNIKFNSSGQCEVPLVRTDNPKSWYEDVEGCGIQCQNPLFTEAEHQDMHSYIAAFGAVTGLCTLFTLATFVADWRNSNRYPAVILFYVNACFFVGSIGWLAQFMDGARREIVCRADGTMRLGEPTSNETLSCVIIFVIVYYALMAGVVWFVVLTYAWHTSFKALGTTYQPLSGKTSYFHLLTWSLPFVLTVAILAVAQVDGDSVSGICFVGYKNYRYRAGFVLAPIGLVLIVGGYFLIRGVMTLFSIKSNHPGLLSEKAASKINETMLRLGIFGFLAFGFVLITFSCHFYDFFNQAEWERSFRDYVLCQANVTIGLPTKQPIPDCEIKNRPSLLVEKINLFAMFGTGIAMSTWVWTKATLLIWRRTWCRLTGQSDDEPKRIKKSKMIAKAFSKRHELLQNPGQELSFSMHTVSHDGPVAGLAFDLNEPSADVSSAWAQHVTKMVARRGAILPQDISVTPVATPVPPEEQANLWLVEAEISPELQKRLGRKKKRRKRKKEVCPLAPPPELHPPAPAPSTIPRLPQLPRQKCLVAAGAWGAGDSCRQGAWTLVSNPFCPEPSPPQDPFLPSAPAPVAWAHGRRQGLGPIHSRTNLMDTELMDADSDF

For the molecule `COc1cc([C@H]2Oc3cc([C@H]4Oc5cc(O)cc(O)c5C(=O)[C@@H]4O)ccc3O[C@@H]2CO)ccc1O` [SilA, silybin A], the IC50 was found to be 104 µM on BRAF V600E kinase, 120 µM in assay [1], 126 µM in assay [3] and 97 µM in assay [4]. For the same molecule, in assay [2], the “HH inhibitory activity (in words)” value is “mild activity”.
Consider `COc1cc([C@H]2Oc3cc(-c4oc5cc(O)cc(O)c5c(=O)c4O)ccc3O[C@@H]2CO)ccc1O` [DHSilA, 2,3-dehydrosilybin A], for which the IC50 at BRAF V600E kinase was 70.6 µM; in assay [1] it was 231 µM; in assay [2] (read-out: IC50, HH inhibitory activity), 5 to 10 µM; in assay [3], 97 µM; in assay [4], 83 µM. Moreover, the “HH inhibitory activity (in words)” value in assay [2] is “high activity”. Also, in assay [5], the “Inhibition of BODIPY-Cyclopamine (BC) binding to cells expressing SMO” value is “inhibited BC binding to cells expressing SMO in a dose-dependent manner”.
Take `COc1cc([C@@H]2Oc3cc(-c4oc5cc(O)cc(O)c5c(=O)c4O)ccc3O[C@H]2CO)ccc1O` [DHSilB, 2,3-dehydrosilybin B]: the IC50 on BRAF V600E kinase came to 24.9 µM; in assay [1], 164 µM; in assay [3], 130 µM; in assay [4] it was 86 µM. The “HH inhibitory activity (in words)” value in assay [2] is “inactive”.
For the molecule `COc1cc([C@@H]2Oc3cc([C@H]4Oc5cc(O)cc(O)c5C(=O)[C@@H]4O)ccc3O[C@H]2CO)ccc1O` [SilB, silybin B], the IC50 stood at 73.9 µM at BRAF V600E kinase, 150 µM in assay [1], 166 µM in assay [3] and 120 µM in assay [4]. Also, the “HH inhibitory activity (in words)” value in assay [2] is “mild activity”.
